For assay [1], the target named is T1, AefR.
T1 construct: His6-AefR (aefR gene in a pET-28b-derived vector)
As to the kind of experiment: ITC with purified His6-AefR; supported by EMSA (disrupts AefR-pmexEF-oprN interaction at […]). It is filed as binding, Pseudomonas fluorescens. In general terms: In EMSA bound probe runs differently from free probe, usually more slowly.

In assay [2] the target is T1, AefR. The description is as above. The assay is classed as binding, Pseudomonas fluorescens. This is another data set of the same source.

pKd: −log10 of the molar value. Like-named read-outs stand apart in the source and are kept apart here.

Here are results for three compounds from article PMC11915855, “The flavonoid-sensing regulator AefR is involved in modulating quorum sensing through repressing the MexEF-OprN efflux pump in Pseudomonas fluorescens” (mSystems, 2025).

As a reminder, the pKd is the Kd on a negative log10 scale, so that one unit is a factor of ten. As to `O=c1cc(-c2ccc(O)cc2)oc2cc(O)cc(O)c12` [apigenin], the pKd on AefR [1] was 3.79.

As for `O=C(CCc1ccc(O)cc1)c1c(O)cc(O)cc1O` [phloretin], the negative logarithm of the Kd (pKd) at AefR [2] is 5.55.

`O=c1c(O)c(-c2ccc(O)c(O)c2)oc2cc(O)cc(O)c12` [quercetin] showed a pKd on AefR [2] of 3.19. This pKd lies 2.36 log units lower than the previous one.
